As a reminder, the viability, T/C is the result in the treated group divided by that in the control group, in per cent. As usually defined, the IC50 is the concentration that gives 50% inhibition.

Where “and” joins values, the source holds several entries; their conditions need not be identical. Identical values can stand only once.

The values that follow come from PubChem BioAssay AID2060488 (Molecular Pharmacology Branch, DTP, NCI, 2025).

For the assay, the system named is 966289-007-R4-J1-PDC complex spheroid viability. The experiment in a line: Anticancer human tumor 966289-007-R4-J1-PDC patient-derived pancreatic adenocarcinoma cell line growth inhibition [GQUAD]. Particulars: for viability, T/C: stronger effect = lower value. The source says: DNA G-quadruplex Stabilizer Agents in Combinations in Complex Spheroids
A high-throughput screen of multi-cell type tumor spheroids was designed to identify active combinations of DNA G-quadruplex stabilizer agents and targeted small molecules. Complex spheroids include a stromal component modeled by human endothelial cells (HUVEC) and fibroblasts modeled by human mesenchymal stem cells (MSCs). The concentration ranges selected for each drug and investigational agent were based upon clinically achievable concentrations if the clinical Cmax of the agent was known.
Compounds. The drugs and investigational agents: pidnarulex (CX-5461; NSC782164), APTO-253 (NSC789042), BRACO-19 (NSC847499), peposertib (NSC802822), ceralasertib (NSC780249), elimusertib (NSC800525), camonsertib (NSC841442), AZD-1390 (NSC803789), olaparib (NSC753686), talazoparib (NSC767125), ART-558 (NSC835418), sotorasib (NSC818433), MRTX-1133 (NSC836407), SN-38 (NSC673596), topotecan (NSC609699), etoposide (NSC141540), doxorubicin (NSC123127), gemcitabine (NSC613327), 5-fluorouracil (NSC19893), paclitaxel (NSC125973), vemurafenib (NSC761431), panobinostat (NSC761190), R-306465 (JNJ-16241199; NSC773264), adavosertib (NSC754352), TP-3654 (NSC805149), carboplatin (NSC241240), KSQ-4279 (NSC840948), and staurosporine (NSC755774) were obtained from the National Cancer Institute (NCI) Developmental Therapeutics Program Chemical Repository (34). The FDA-approved anticancer drug set is available from the NCI Developmental Therapeutics Program. […] The stock solutions were prepared in dimethyl sulfoxide (DMSO, Sigma-Aldrich, St. Louis, MO, cat. D2650) at 800-fold the tested concentration and stored at -70 degrees C prior to their use. All drugs and investigational agents were tested over a range starting from a high concentration at or near the clinical Cmax and decreasing in half-log increments. If the clinical Cmax for an agent had not been determined, the highest concentration tested was 10 microM.
2.3 Cell Culture. All cells were maintained in an incubator at 37 degrees C and 5% CO2 with 95% humidity. The PDC lines were cultured according to standard operating procedures established by the NCI PDMR. All PDCs were thawed and cultured in Matrigel-coated flasks prepared with a working solution of 1X Ham's F-12 nutrient mix, without supplementation (Invitrogen, cat. 11765054), 100 U/mL penicillin-streptomycin (Invitrogen, cat. 15140122), and 2.5% Matrigel (Corning Inc., cat. 354248) for the first three passages. The 857933-349-R-J2-PDC line was cultured in 6C/Colon 1B media, which includes advanced DMEM/F-12 (Thermo Fisher Scientific, cat. 12634028), 10 mM HEPES (Thermo Fisher Scientific, cat. 15630080), 1X GlutaMAX supplement (Thermo Fisher Scientific, cat. 35050061), 0.1 mg/mL primocin (InvivoGen, cat. ant-pm-2), 10% defined fetal bovine serum, heat inactivated (HyClone Laboratories Inc., cat. SH30070.03HI), 50% L-WRN conditioned media (ATCC, cat. CRL-3276), 1.25 mM N-Acetyl-L-cysteine (Sigma-Aldrich, cat. A9165), 10 mM nicotinamide (Sigma-Aldrich, cat. N0636), 1X B-27 supplement (Thermo Fisher Scientific, cat. 17504044), 1X N-2 supplement (Thermo Fisher Scientific, cat. 17502048), 10 microM Y-27632 dihydrochloride (Tocris Bioscience, cat. 1254), and 50 ng/mL human EGF recombinant protein (Thermo Fisher Scientific, cat. PHG0311). The 485176-168-R4-J1-PDC line was cultured in Panc media, which includes all 6C/Colon 1B media components plus 100 ng/mL human FGF-10 (Thermo Fisher Scientific, cat. 100-26), 500 nM SB-431542 (Selleckchem, cat. S1067), and gastrin (Tocris, cat. 3006).
[…]
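Also: spheroids exposed to the agents for seven days before readout.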
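For viability, T/C in this document: percent viability relative to DMSO vehicle control wells taken as 100%.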

`C#Cc1c(F)ccc2cc(O)cc(-c3ncc4c(N5CC6CCC(C5)N6)nc(OCC56CCCN5CC(F)C6)nc4c3F)c12` (stereo not given): the viability, T/C is 97.1% and 95.7% (compound 0.0316 µM); 112% and 91.4% (compound 0.1 µM); 104% and 100% (compound 0.316 µM); 102% and 97.3% (compound 1 µM); 108% and 98.6% (compound 3.16 µM); 113% and 95.9% (compound 10 µM). Besides, the IC50 (curve of compound) is over 10000 nM.
Regarding `C=CC(=O)N1CCN(c2nc(=O)n(-c3c(C)ccnc3C(C)C)c3nc(-c4c(O)cccc4F)c(F)cc23)C(C)C1` (stereo not given), the viability, T/C is, setting by setting: (compound 0.0316 µM) 102% (2×) and 99.4%; (compound 0.1 µM) 102% and 99.7% and 98.1%; (compound 0.316 µM) 104% and 94.3% and 95.7%; (compound 1 µM) 90% and 101% and 75.8%; (compound 3.16 µM) 97.5% and 106% and 100%; (compound 10 µM) 110% and 108% and 116%. Also, the concentration for half-maximal inhibition (IC50) (curve of compound) was over 10000 nM.
Turning to `CC(=O)O[C@H]1C(=O)[C@@]2(C)[C@H]([C@H](OC(=O)c3ccccc3)[C@]3(O)C[C@H](OC(=O)[C@H](O)[C@@H](NC(=O)c4ccccc4)c4ccccc4)C(C)=C1C3(C)C)[C@]1(OC(C)=O)CO[C@@H]1C[C@@H]2O`, the viability, T/C was 5.97% and 4.08% (compound 0.0316 µM); 3.17% and 2.51% (compound 0.1 µM); 4.33% and 3.04% (compound 0.316 µM); 6.75% and 5.13% (compound 1 µM); 9.64% and 6.14% (compound 3.16 µM); 14.1% and 8.4% (compound 10 µM). Under “curve of compound”, the 50% inhibitory concentration (IC50) was under 31.6 nM.
Turning to `CC(C)n1c(=O)n(C)c2cnc3cc(F)c(-c4ccc(OCCCN5CCCCC5)nc4)cc3c21`, the viability, T/C was 101% and 103% and 95.4% (compound 0.0316 µM); 103% and 106% (2×) (compound 0.1 µM); 114% and 106% and 102% (compound 0.316 µM); 107% and 105% and 114% (compound 1 µM); 107% (2×) and 116% (compound 3.16 µM); 86% and 88.6% and 91.8% (compound 10 µM). For the setting “curve of compound”, the concentration for half-maximal inhibition (IC50) is over 10000 nM.
Take `CC1COCCN1c1cc(-c2ccnn2C)c2ccnc(-c3ccn[nH]3)c2n1` (stereo not given): the viability, T/C (compound 0.0316 µM) was 112% and 106% and 104%; the viability, T/C (compound 0.1 µM) was 75.1% and 95% and 82.1%; the viability, T/C (compound 0.316 µM) was 15.9% and 32.8% and 16.8%; the viability, T/C (compound 1 µM) was 6.65% and 12.3% and 6.94%; the viability, T/C (compound 3.16 µM) is 4.32% and 6.18% and 4.41%; the viability, T/C (compound 10 µM) was 3.06% and 4.67% and 3.7%. In addition, under “curve of compound”, the IC50 is 163 nM and 231 nM and 176 nM.
On to `CC1COCCN1c1cc(C2(O)CC3CCC(C2)O3)c2cnn(-c3ccn[nH]3)c2n1` (stereo not given), for which the viability, T/C runs as follows: (compound 0.0316 µM) 112% and 111% and 109%; (compound 0.1 µM) 64.2% and 55% and 74.8%; (compound 0.316 µM) 16.3% and 13.5% and 20.4%; (compound 1 µM) 5.75% and 6.02% and 11.2%; (compound 3.16 µM) 4.81% and 4.92% and 6.7%; (compound 10 µM) 4.35% and 4.17% and 5.99%. The IC50 (curve of compound) was 141 nM and 115 nM and 170 nM.
Consider `CC1COCCN1c1cc(C2(S(C)(=N)=O)CC2)nc(-c2ccnc3[nH]ccc23)n1` (stereo not given), for which the viability, T/C reads like this: (compound 0.0316 µM) 105% and 101% and 96.9%; (compound 0.1 µM) 104% and 98.3% and 105%; (compound 0.316 µM) 109% and 99.3% and 108%; (compound 1 µM) 95.2% and 103% and 108%; (compound 3.16 µM) 45.6% and 71.7% and 117%; (compound 10 µM) 6.26% and 10.7% and 7.26%. In addition, the 50% inhibitory concentration (IC50) (curve of compound) is 2850 nM and 4770 nM and 6110 nM.
As to `CC[C@@]1(O)C(=O)OCc2c1cc1n(c2=O)Cc2cc3c(CN(C)C)c(O)ccc3nc2-1`, the viability, T/C (compound 0.000999 µM) is 88.3% and 105% and 97.2%; the viability, T/C (compound 0.00316 µM) was 92.3% and 95.7% and 100%; the viability, T/C (compound 0.00999 µM) is 108% and 105% and 110%; the viability, T/C (compound 0.0316 µM) is 74.9% and 90.5% and 50.4%; the viability, T/C (compound 0.0999 µM) is 0.78% and 1.86% and 0.73%; the viability, T/C (compound 0.316 µM) is 0.62% and 0.47% and 0.41%. For the setting “curve of compound”, the 50% inhibitory concentration (IC50) is 46.5 nM and 53.5 nM and 31.9 nM.
In the case of `CCc1c2c(nc3ccc(O)cc13)-c1cc3c(c(=O)n1C2)COC(=O)[C@]3(O)CC`, the viability, T/C reads like this: (compound 0.000999 µM) 21.8% and 23.1% and 26.9%; (compound 0.00316 µM) 0.79% and 0.89% and 0.66%; (compound 0.00999 µM) 0.67% and 0.66% and 0.5%; (compound 0.0316 µM) 0.8% and 0.6% and 0.43%; (compound 0.0999 µM) 0.53% and 0.49% and 0.38%; (compound 0.316 µM) 0.45% and 0.44% and 0.36%. Besides, the IC50 (curve of compound) is under 0.999 nM.
Regarding `CN(C)c1ccc(Nc2c3ccc(NC(=O)CCN4CCCC4)cc3nc3cc(NC(=O)CCN4CCCC4)ccc23)cc1`, the viability, T/C is, setting by setting: (compound 0.0316 µM) 104% [middle of 12 runs]; (compound 0.1 µM) 107% [middle of 12 runs]; (compound 0.316 µM) 108% [middle of 11 runs]; (compound 1 µM) 108% [middle of 12 runs]; (compound 3.16 µM) 98.7% [middle of 12 runs]; (compound 10 µM) 99.8% [middle of 12 runs]. Where the note is “compound alone, run of 03/26/2024”, the half-maximal inhibitory concentration (IC50) was over 10000 nM.
